Laboratory results: patent US4294958A, “Water-soluble salts of trimethylammonium derivatives of polyene macrolide antibiotics and the preparation thereof” (Politechnika Gdanska, priority 1978, dated 1981)
Converted amounts (≈) assume the structure as drawn. Read-outs that look alike come from different tables or passages of the source.

Columns and labels:
Type in all cases: cell-based
[1] = tested on: Saccharomyces cerevisiae cells; test: antifungal activity: inhibition of growth of Saccharomyces cerevisiae in liquid standard medium
Protocol: IC50 means the concentration of the substance causing 50% inhibitio
of the growth of Saccharomyces cerevisiae cells in liquid standard medium
determined spectrophotometrically at λ = 600 nm after 24 hours

hemoglobin = test: haemolytic activity (hemoglobin, determined spectrophotometrically)
Text: (§1) EH50 means the concentration of the substance causing in conditions
(§2) 50% of hemoglobin determined spectrophotometrically at λ = 550 nm.

[2] = as above
Text: as §1, §2

[3] = 50% inhibition of growth of Saccharomyces cerevisiae, liquid standard medium, λ = 600 nm, 24 hours, 28° C.
[4] = in vitro haemolysis, 50% of hemoglobin, λ = 550 nm
[5] = 50% inhibition of growth of Saccharomyces cerevisiae, liquid standard medium, λ = 600 nm, 24 hours, 28° C., read-out: IC50
[6] = in vitro haemolysis, 50% of hemoglobin, λ = 550 nm, read-out: EH50 (the source's name)

| Molecule | IC50 [1, 3] | EH50 (hemoglobin; [4]) | further results |
| --- | --- | --- | --- |
| candicidin | 0.005 µg/mL | 2.5 µg/mL |  |
| C[C@@H]1[C@H](O)[C@@H](C)/C=C/C=C/CC/C=C/C=C/C=C/C=C/C(O[C@H]2O[C@H](C)[C@@H](O)[C@H](N)[C@@H]2O)CC2O[C@](O)(CC(O)C(O)CCC(O)CC(O)CC(O)CC(=O)O[C@H]1C)CC(O)C2C(=O)O (stereo partly drawn) [Nystatin, nystatin] | 0.1 µg/mL (≈ 0.108 µM) | 50 µg/mL |  |
| N,N,N-dimethyl-mycoheptin methyl ester [DMS-Mycoheptin] | 0.2 µg/mL | 65 µg/mL |  |
| trichomycin | 0.005 µg/mL | 3 µg/mL |  |
| N,N,N-trimethylnystatin methyl ester [DMS-Nystatin] | 0.25 µg/mL | 100 µg/mL |  |
| C[C@@H]1C/C=C/C=C/C=C/C=C/[C@H](O[C@@H]2O[C@H](C)[C@@H](O)[C@H](N)[C@@H]2O)C[C@@H]2O[C@](O)(C[C@@H](O)C[C@H]3O[C@@H]3/C=C/C(=O)O1)C[C@H](O)[C@H]2C(=O)O [Pimaricin, pimaricin] |  |  | IC50 [1, 5]: 1 µg/mL (≈ 1.5 µM); HC50 [2]: 100 µg/mL |
| levorin | 0.007 µg/mL | 2.5 µg/mL |  |
| C[C@@H]1[C@H](O)[C@@H](C)/C=C/C=C/C=C/C=C/C=C/C=C/C=C/[C@H](O[C@@H]2O[C@H](C)[C@@H](O)[C@H](N)[C@@H]2O)C[C@@H]2O[C@](O)(C[C@@H](O)C[C@@H](O)[C@H](O)CC[C@@H](O)C[C@@H](O)CC(=O)O[C@H]1C)C[C@H](O)[C@H]2C(=O)O [Amphotericin B, amphotericin B] |  |  | IC50 ([1]; Saccharomyces cerevisiae, 24 h): 0.03 µg/mL (≈ 0.0325 µM); HC50 [2, 6]: 5 µg/mL |
| COC(=O)[C@H]1[C@@H]2C[C@@H](O[C@@H]3O[C@H](C)[C@@H](O)[C@H]([N+](C)(C)C)[C@@H]3O)/C=C/C=C/C=C/C=C/C=C/C=C/C=C/[C@H](C)[C@@H](O)[C@@H](C)[C@H](C)OC(=O)C[C@H](O)C[C@H](O)CC[C@@H](O)[C@H](O)C[C@H](O)C[C@](O)(C[C@@H]1O)O2 [DMS-Amphotericin B, N,N,N-trimethylamphotericin B methyl ester] |  |  | IC50 [1, 5]: 0.08 µg/mL; HC50 [2, 6]: 5 µg/mL |
| COc1cc2c(c3oc(-c4ccccc4)cc(=O)c13)C=CC(C)(C)O2 [Candidin, candidin] |  |  | IC50 [1, 5]: 0.054 µg/mL (≈ 0.161 µM); HC50 [2, 6]: 20 µg/mL |
| perimycin | 0.002 µg/mL | 5 µg/mL |  |
| N,N,N-trimethylcandidin methyl ester [DMS-Candidin] | 0.15 µg/mL | 70 µg/mL |  |
| N,N,N-trimethylpolifungin methyl ester [DMS-Polifungin] | 0.15 µg/mL |  | EH50 (hemoglobin): 120 µg/mL |
| aureofacin | 0.005 µg/mL | 0.35 µg/mL |  |
| CCC[C@@H]1C/C=C/C=C/C=C/C=C/[C@H](O[C@@H]2O[C@H](C)[C@@H](O)[C@H](N)[C@@H]2O)C[C@@H]2O[C@](O)(C[C@@H](O)CCCC(=O)C[C@@H](O)[C@H](CC)C(=O)O1)C[C@H](O)[C@H]2C(=O)O [Rimocidin, rimocidin] | 1.5 µg/mL (≈ 1.95 µM) | 30 µg/mL |  |
| C[C@@H]1[C@H](O)[C@@H](C)/C=C/C=C/C=C/C=C/C=C/C=C/C=C/[C@H](O[C@@H]2O[C@H](C)[C@@H](O)[C@H](N)[C@@H]2O)C[C@@H]2O[C@](O)(C[C@@H](O)[C@H](O)CC[C@@H](O)CC(=O)C[C@@H](O)CC(=O)O[C@H]1C)C[C@H](O)[C@H]2C(=O)O [Mycoheptin, mycoheptin] | 0.05 µg/mL (≈ 0.0542 µM) | 15 µg/mL |  |
| N,N,N-trimethylrimocidin methyl ester [DMS-Rimocidin] | 2.5 µg/mL | 50 µg/mL |  |
| polyfungin [Polifungin] | 0.08 µg/mL |  | EH50 (hemoglobin): 20 µg/mL |
